One may read the IC50 as the midpoint of a concentration-inhibition curve. Lower therefore signals greater potency.

Bounds are passed on as bounds.

Experiment [1] concerns the target Tyrosine-protein kinase Lyn (Homo sapiens, UniProt P07948). The experiment can be described thus: Selectivity interaction (Kinase panel (Z-LYTE Assay)) EUB0001632a LYN. The conditions noted are these: at 10 µM.
The target of experiment [2] is Aurora kinase B (Homo sapiens, UniProt Q96GD4). The experiment can be described thus: Selectivity interaction (KinomeScan (DiscoverX)) EUB0000666a AURKB. The note with it: at 10 µM.
Chain of Aurora kinase B (Q96GD4 whole entry): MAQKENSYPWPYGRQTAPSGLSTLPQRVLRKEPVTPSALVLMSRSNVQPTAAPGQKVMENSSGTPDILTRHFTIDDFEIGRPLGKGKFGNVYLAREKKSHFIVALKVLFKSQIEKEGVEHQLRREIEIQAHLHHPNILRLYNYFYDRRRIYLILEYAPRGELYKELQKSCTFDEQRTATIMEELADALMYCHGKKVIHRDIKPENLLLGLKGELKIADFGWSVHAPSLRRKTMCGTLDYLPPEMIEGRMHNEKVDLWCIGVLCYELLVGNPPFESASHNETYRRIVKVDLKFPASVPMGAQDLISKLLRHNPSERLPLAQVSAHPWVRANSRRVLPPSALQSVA
Experiment [3] addresses Mitogen-activated protein kinase 14 (Homo sapiens, UniProt Q16539). The experiment can be described thus: Selectivity interaction (Kinase panel (33PanQinase(R) Activity Assay)) EUB0000877a MAPK14.
The target of experiment [4] is Casein kinase II subunit alpha' (Homo sapiens) (UniProt P19784). The experiment can be described thus: Selectivity interaction (ActivX KiNativ screen (kinase selectivity in THP-1 cell lysates)) EUB0000639a CSNK2A2. Format: subcellular. The note with it: lysate.
Chain of Casein kinase II subunit alpha' (Homo sapiens) (P19784 whole entry, looked up): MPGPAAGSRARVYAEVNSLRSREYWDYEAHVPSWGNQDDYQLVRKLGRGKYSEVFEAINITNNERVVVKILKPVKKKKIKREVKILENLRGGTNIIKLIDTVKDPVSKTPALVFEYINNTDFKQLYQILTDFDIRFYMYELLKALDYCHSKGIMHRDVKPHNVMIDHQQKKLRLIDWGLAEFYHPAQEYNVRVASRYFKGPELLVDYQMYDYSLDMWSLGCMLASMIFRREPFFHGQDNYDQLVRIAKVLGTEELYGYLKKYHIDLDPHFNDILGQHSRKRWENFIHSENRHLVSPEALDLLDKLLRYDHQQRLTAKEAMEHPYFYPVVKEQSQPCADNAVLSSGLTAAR
The target in experiment [5] is T1, Beta-adrenergic receptor kinase 1 (Homo sapiens) (UniProt P25098).
T1 sequence (whole entry): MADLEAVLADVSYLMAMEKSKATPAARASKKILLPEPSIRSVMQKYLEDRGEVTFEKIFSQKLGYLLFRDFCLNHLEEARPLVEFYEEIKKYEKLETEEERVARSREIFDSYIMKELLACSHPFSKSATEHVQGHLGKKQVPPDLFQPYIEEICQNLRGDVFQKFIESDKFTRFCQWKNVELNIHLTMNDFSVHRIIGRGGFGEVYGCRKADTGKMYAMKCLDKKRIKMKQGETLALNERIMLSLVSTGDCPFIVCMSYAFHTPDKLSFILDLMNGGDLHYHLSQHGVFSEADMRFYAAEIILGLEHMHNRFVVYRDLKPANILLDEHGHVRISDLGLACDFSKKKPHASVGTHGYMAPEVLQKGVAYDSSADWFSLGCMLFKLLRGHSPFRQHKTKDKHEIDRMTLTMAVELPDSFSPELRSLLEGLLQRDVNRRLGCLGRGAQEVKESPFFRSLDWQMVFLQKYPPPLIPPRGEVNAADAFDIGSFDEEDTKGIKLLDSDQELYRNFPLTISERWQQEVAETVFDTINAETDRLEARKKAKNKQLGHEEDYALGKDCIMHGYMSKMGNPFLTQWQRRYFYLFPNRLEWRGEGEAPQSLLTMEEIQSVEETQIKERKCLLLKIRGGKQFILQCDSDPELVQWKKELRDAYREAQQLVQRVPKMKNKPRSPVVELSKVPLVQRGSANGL
The experiment can be described thus: Selectivity interaction (ActivX KiNativ screen (kinase selectivity in THP-1 cell lysates)) EUB0000639a ADRBK1. The conditions noted are these: lysate. In kind it is subcellular.

In experiment [6] the target is Serine/threonine-protein kinase 26 (Homo sapiens, UniProt Q9P289). The experiment can be described thus: Selectivity interaction (ActivX KiNativ screen (kinase selectivity in THP-1 cell lysates)) EUB0000639a STK26. In kind it is subcellular. The note with it: lysate.
Chain of Serine/threonine-protein kinase 26 (Q9P289 2-416 limits assumed): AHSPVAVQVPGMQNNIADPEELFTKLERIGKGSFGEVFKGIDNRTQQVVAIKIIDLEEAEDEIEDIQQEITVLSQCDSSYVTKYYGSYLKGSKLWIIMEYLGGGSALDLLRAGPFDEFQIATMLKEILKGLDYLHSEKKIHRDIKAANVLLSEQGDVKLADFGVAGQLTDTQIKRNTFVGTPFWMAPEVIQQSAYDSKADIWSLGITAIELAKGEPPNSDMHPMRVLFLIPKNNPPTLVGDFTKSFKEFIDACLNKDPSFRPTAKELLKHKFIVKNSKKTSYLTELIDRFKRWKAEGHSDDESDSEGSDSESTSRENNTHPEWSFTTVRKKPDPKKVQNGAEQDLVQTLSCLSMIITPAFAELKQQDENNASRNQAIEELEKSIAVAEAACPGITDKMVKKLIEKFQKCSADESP
In experiment [7] the target is Ribosomal protein S6 kinase alpha-4 (Homo sapiens) (UniProt O75676). The experiment can be described thus: Selectivity interaction (Kinase screening (Nanosyn)) EUB0000604a RPS6KA4.
Chain of Ribosomal protein S6 kinase alpha-4 (Homo sapiens) (O75676 whole entry, looked up): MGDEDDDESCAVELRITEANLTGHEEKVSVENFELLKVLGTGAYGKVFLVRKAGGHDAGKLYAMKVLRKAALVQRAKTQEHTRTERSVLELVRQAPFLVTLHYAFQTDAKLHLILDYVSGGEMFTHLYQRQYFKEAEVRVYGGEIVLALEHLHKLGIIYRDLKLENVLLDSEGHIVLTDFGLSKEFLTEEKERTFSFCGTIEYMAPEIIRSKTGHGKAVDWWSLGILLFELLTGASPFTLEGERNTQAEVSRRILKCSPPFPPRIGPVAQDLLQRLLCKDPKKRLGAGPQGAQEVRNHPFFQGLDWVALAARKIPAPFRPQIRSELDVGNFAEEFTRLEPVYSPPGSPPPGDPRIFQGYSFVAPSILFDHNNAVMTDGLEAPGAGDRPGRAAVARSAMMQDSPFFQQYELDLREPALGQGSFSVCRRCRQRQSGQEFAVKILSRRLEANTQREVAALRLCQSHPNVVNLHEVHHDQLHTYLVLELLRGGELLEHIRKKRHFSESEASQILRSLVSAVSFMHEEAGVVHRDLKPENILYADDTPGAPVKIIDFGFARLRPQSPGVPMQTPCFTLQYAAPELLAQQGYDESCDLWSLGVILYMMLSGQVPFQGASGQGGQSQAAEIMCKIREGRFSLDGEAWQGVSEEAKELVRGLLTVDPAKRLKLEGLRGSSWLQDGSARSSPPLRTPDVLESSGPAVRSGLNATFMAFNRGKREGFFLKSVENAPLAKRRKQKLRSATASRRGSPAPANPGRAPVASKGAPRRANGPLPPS
In experiment [8] the target is Dual specificity protein kinase CLK4 (Homo sapiens, UniProt Q9HAZ1). The conditions noted are these: at 10 µM.
Chain of Dual specificity protein kinase CLK4 (Q9HAZ1 whole entry, looked up): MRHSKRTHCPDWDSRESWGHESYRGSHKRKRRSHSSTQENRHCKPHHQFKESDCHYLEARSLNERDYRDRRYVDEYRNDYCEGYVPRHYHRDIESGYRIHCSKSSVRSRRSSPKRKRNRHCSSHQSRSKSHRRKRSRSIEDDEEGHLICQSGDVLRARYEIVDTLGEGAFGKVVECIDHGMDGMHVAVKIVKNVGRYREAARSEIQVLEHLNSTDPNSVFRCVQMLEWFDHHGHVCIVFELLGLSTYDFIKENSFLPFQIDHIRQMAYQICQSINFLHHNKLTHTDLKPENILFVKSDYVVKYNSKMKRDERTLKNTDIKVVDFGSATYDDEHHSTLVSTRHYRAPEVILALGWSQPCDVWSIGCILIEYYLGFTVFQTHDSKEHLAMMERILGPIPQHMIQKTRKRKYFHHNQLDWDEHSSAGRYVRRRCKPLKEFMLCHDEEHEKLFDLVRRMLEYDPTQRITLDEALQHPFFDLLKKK
Experiment [9] addresses T2, Receptor-type tyrosine-protein kinase FLT3 (Homo sapiens, UniProt P36888).
T2 sequence (P36888 whole entry): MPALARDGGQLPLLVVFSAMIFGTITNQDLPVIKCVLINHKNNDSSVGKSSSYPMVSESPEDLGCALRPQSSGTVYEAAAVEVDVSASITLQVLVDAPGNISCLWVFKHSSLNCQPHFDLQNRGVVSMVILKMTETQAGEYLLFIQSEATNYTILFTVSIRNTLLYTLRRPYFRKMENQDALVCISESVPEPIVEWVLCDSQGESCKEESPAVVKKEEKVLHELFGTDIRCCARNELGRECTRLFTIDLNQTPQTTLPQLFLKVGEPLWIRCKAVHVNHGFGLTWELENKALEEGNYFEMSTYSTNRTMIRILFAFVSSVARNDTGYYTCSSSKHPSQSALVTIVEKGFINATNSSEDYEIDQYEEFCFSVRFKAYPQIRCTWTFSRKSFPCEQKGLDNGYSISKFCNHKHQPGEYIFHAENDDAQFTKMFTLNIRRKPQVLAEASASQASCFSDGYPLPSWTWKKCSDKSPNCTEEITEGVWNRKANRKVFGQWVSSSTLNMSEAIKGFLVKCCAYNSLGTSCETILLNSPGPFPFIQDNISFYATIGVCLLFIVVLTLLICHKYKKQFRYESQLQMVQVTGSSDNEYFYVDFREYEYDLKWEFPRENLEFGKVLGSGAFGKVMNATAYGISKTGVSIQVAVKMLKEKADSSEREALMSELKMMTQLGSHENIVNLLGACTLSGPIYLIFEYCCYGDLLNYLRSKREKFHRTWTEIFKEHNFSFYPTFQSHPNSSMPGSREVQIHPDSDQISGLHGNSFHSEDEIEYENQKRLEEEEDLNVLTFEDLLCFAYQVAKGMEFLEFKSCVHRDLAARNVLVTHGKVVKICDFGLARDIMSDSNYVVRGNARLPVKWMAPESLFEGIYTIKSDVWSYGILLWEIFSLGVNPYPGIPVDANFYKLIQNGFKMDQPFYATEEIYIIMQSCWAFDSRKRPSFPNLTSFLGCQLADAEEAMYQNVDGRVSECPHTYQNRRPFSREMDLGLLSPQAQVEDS

Chain of Tyrosine-protein kinase Lyn (P07948 2-512 limits assumed): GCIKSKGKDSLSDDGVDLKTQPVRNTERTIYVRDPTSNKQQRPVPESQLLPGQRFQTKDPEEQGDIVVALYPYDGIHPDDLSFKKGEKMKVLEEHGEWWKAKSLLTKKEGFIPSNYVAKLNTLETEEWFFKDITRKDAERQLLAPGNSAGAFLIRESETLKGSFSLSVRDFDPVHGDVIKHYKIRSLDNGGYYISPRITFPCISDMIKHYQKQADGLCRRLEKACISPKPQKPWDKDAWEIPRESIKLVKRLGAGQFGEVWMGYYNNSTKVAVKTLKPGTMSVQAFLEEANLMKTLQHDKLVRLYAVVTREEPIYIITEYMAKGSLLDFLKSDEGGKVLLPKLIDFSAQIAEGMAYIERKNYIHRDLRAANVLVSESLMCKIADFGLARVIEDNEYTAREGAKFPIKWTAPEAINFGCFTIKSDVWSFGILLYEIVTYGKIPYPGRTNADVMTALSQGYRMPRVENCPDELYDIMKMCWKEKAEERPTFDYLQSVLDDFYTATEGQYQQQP
Chain of Mitogen-activated protein kinase 14 (Q16539 whole entry): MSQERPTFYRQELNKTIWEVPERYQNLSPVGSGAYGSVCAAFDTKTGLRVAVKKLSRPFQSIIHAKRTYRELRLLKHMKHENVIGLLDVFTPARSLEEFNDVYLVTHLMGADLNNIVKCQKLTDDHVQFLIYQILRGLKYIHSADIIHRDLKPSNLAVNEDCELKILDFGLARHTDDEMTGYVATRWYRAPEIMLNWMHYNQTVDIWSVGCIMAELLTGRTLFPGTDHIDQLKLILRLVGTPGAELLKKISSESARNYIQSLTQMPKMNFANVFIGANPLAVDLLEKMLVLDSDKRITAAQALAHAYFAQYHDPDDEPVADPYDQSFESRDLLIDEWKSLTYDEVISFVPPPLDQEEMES

In experiment [1], `Cn1cc(-n2cnc3c(NCc4nc5cc(Cl)c(Cl)cc5[nH]4)nc(N4CCOCC4)nc32)cn1` gave a % of control of 6.83%.

Regarding `O=C(NOC[C@H](O)CO)c1ccc(F)c(F)c1Nc1ccc(I)cc1F`, the % of control in experiment [2] is 99%.

For the molecule `CCC(=O)N1CC[C@H](Nc2ncnc3c2CN(c2cnc(OC)c(C(F)(F)F)c2)CC3)C1` [LENIOLISIB], the IC50 in [3] was above 10 µM.

In the case of `CC[C@@H]1[C@H](F)C(=O)N[C@@H]1COc1nccc2cc(C(N)=O)c(OC)cc12` [ZIMLOVISERTIB], the % of inhibition in experiment [4] (at 0.01 µM) is -4.5%; in experiment [4] (at 0.04 µM), -21.2%; in experiment [4] (at 0.2 µM), -18%; in [4] (at 1 µM), -3.6%; in [4] (at 5 µM), -2.6%; in experiment [5] (at 0.01 µM), 5.6%. The % of inhibition was 8% in experiment [5] (at 0.04 µM); 9.7% in [5] (at 0.2 µM); 14.3% in experiment [5] (at 1 µM); 12.1% in [5] (at 5 µM); -5.3% in experiment [6] (at 0.01 µM); 19.1% in experiment [6] (at 0.04 µM). The % of inhibition is -26.4% in experiment [6] (at 0.2 µM), 10.2% in experiment [6] (at 1 µM) and 0.7% in [6] (at 5 µM).

Turning to `Cc1cnc(Nc2ccc(F)cc2Cl)nc1-c1c[nH]c(C(=O)N[C@H](CO)c2cccc(Cl)c2)c1`, the % of inhibition in experiment [7] was found to be 6%.

In turn, `CCN(CC)CCCCNc1ncc2cc(-c3cc(OC)cc(OC)c3)c(NC(=O)NC(C)(C)C)nc2n1` gave a % of control in experiment [8] of 100%.

Consider `CCc1cccc(CC)c1NC(=O)c1nn(C)c2c1CCc1cnc(Nc3ccc(C(=O)NC4CCN(C)CC4)cc3OC(F)(F)F)nc1-2`, for which the IC50 in experiment [9] is above 10 µM.

These data come from ChEMBL document CHEMBL5465560, “Selectivity Literature for EUbOPEN Chemogenomic Library” (2024).
